The results in this text go back to US20220087974A1, “METHOD AGAINST CORONAVIRUS INFECTION WITH COUMARIN-DERIVED COMPOUND” (CHANG GUNG UNIVERSITY, priority 2020, published 2022).

One assay deals with SARS-CoV-2. Kind of assay: Viral plaque reduction assay. The note with it: SARS-CoV-2-infected Vero E6 cells, m.o.i. 0.01, HP520-2, 72 hours, versus pathological control group. The assay is classed as cell-based. (Plaques are areas of infected cells; plaque reduction assays count them against a control.)
Assay [1] concerns Envelope (E) gene of SARS-CoV-2. The assay can be described thus: Quantitative determination of viral gene expression (real-time PCR of E gene). The assay is classed as cell-based, severe acute respiratory syndrome coronavirus 2. The note with it: Vero E6 cells pretreated at 15.625 nM and 62.5 nM (experimental groups 2 to 3), m.o.i. 0.01, versus pathological control group. (In general: Quantitative PCR measures a nucleic acid by following its amplification.)

Another assay concerns HcoV-229E. The assay can be described thus: MTT cell viability assay of HcoV-229E-infected Vero E6 cells. It is filed as cell-based, human coronavirus 229E. The protocol:
Vero E6 cells were divided into 5 groups, including one normal control group, one pathological control group, and three experimental groups (i.e., experimental groups 1 to 3). Each group of the Vero E6 cells was incubated in a respective well of a 96-well culture plate containing 100 μL of E2 medium at 2×10^4 cells/well, followed by cultivation in an incubator (37° C., 5% CO2) for 24 hours. Afterwards, the culture medium in each well was removed, and the cells of the experimental groups 1 to 3 were pretreated with 8-benzoyl-4-methyl-9-phenyl-furo[2,3-h]chromen-2-one (i.e., HP520-2) (Cat. No. STL-513320, Vitas-M Laboratory) respectively at concentrations of 20 nM, 40 nM, and 80 nM, followed by adding 150 μL of the HcoV-229E solution prepared in section 2 of General Experimental Materials. […]
Each group was cultivated in an incubator (37° C., 5% CO2) for 96 hours. […] After cultivation in an incubator (37° C., 5% CO2) for 2 hours, the respective resultant cell culture was added with 150 μL of dimethyl sulfoxide (DMSO), followed by subjecting the mixture thus obtained to determination of absorbance at a wavelength of 590 nm (OD590) by an ELISA reader.
The cell viability rate (%) was calculated using the following Equation (I): […]

For the molecule `Cc1cc(=O)oc2c1ccc1oc(C(=O)c3ccccc3)c(-c3ccccc3)c12` [HP520-2, 8-benzoyl-4-methyl-9-phenyl-furo[2,3-h]chromen-2-one], in the assay with SARS-CoV-2, the “number of viral plaques” value was “lower than that determined in the pathological control group”. For the same molecule, the “relative RNA expression level of E gene of SARS-CoV-2” value in assay [1] is given as “significantly lower than that of the pathological control group”. It took 39 ± 15 nM to reach a half-maximal effect in the assay with HcoV-229E (Human coronavirus 229E, Vero C1008, Vero E6 cells, HcoV-229E, 96 hours, MTT, n=3, mean±SD) (EC50). The cell viability rate result in the assay with HcoV-229E (Vero E6 cells pretreated at 20 nM, 40 nM, 80 nM, versus pathological control group, FIG. 1) is given as “significantly higher than that determined in the pathological control group”.

In general, EC50 refers to the concentration giving half of the maximal effect.
